Results from BindingDB's records for doi:10.1016/j.ejmech.2016.06.026 (Czech Academy of Sciences, 2016).

Key:
[1] = Inhibition of HIV-1 3B reverse transcriptase K103N mutant infected in human MT4 cells assessed as inhibition of viral replication after 5 days by cell titer glo based luciferase reporter gene assay
[2] = Inhibition of reverse transcriptase Y181C mutant in HIV-1 3B infected in human MT4 cells assessed as inhibition of viral replication after 5 days by cell titer glo based luciferase reporter gene assay

With `COc1cc(F)c(C(=O)c2ccnc(Nc3ccc(C#N)cc3)n2)c(F)c1` the EC50 [1] was 347 nM and the EC50 [2] was over 500 nM.
